Source: publication PMC11995724, “Antibiotic target discovery by integrated phenotypic and activity-based profiling of electrophilic fragments” (Cell chemical biology, 2025)

Experiment: in vitro
Details: human, hek293t cells

## C=CC(=O)N1CCC(C(=O)NC2(c3ccc(F)cc3F)CCC2)CC1 [3-M04, N-[1-(2,4-difluorophenyl)cyclobutyl]-1-(prop-2-enoyl)piperidine-4-carboxamide]
  viability at 48 h, 25 µM: 97.5%

## Cc1cc(C(=O)CCl)c(C)n1CC(N)=O [10-O16, 2-[3-(2-chloroacetyl)-2,5-dimethyl-1H-pyrrol-1-yl]acetamide]
  viability at 48 h, 25 µM: 108%

## N#CC(=Cc1c(F)cccc1F)C(=O)NCCc1ccccc1 [8-D18, 2-cyano-3-(2,6-difluorophenyl)-N-(2-phenylethyl)prop-2-enamide]
  viability at 48 h, 25 µM: 47.1%

## N#CC(=Cc1ccccc1)C(=O)Nc1nnn[nH]1 [8-J14, 2-cyano-3-phenyl-N-(1H-1,2,3,4-tetrazol-5-yl)prop-2-enamide]
  viability at 48 h, 25 µM: 111%

## O=C(CCl)NCC12CCCCC1C2(F)F (centres unmarked) [5-C18, 2-chloro-N-({7,7-difluorobicyclo[4.1.0]heptan-1-yl}methyl)acetamide]
  viability at 48 h, 25 µM: 8.39%

## CC(C)c1ccccc1NC(=O)CCl [4-F06, 2-chloro-N-[2-(propan-2-yl)phenyl]acetamide]
  viability at 48 h, 25 µM: 1.92%

## CC(Cl)C(=O)Nc1c(C(C)C)cccc1C(C)C (centres unmarked) [4-B15, N-[2,6-bis(propan-2-yl)phenyl]-2-chloropropanamide]
  viability at 48 h, 25 µM: 93.3%

## N#CC(C(=O)CCl)c1nncn1-c1ccccc1 (centres unmarked) [10-L14, 4-chloro-3-oxo-2-(4-phenyl-4H-1,2,4-triazol-3-yl)butanenitrile]
  viability at 48 h, 25 µM: 83.7%

## CC(=O)Nc1ccc(C=C(C#N)C(=O)Nc2c(C)cc(C)cc2C)cc1 [8-M13, 2-cyano-3-(4-acetamidophenyl)-N-(2,4,6-trimethylphenyl)prop-2-enamide]
  viability at 48 h, 25 µM: 87.7%

## CC(=O)Nc1ccc(C=C(C#N)C(=O)NCc2ccccc2)cc1 [8-D12, N-benzyl-2-cyano-3-(4-acetamidophenyl)prop-2-enamide]
  viability at 48 h, 25 µM: 84.4%

## C=CC(=O)NC[C@H]1CCCN1S(C)(=O)=O [1-H07, N-{[(2R)-1-methanesulfonylpyrrolidin-2-yl]methyl}prop-2-enamide]
  viability at 48 h, 25 µM: 99.1%

## C=CC(=O)N1CCN(S(C)(=O)=O)[C@H](C)C1 [1-G15, 1-[(3R)-4-methanesulfonyl-3-methylpiperazin-1-yl]prop-2-en-1-one]
  viability at 48 h, 25 µM: 101%

## CC(NC(=O)CCl)c1nc(Cc2ccccc2)no1 (centres unmarked) [6-L07, N-[1-(3-benzyl-1,2,4-oxadiazol-5-yl)ethyl]-2-chloroacetamide]
  viability at 48 h, 25 µM: 1.28%

## COc1ccc(CCN2C(=O)C=CC2=O)cc1 [10-A05, 1-[2-(4-methoxyphenyl)ethyl]-2,5-dihydro-1H-pyrrole-2,5-dione]
  viability at 48 h, 25 µM: 5.85%

## C=CC(=O)N(CC)CC(=O)N1CCN(c2ccc(C#N)cc2F)CC1 [3-D03, N-{2-[4-(4-cyano-2-fluorophenyl)piperazin-1-yl]-2-oxoethyl}-N-ethylprop-2-enamide]
  viability at 48 h, 25 µM: 74.4%

## C=CC(=O)NC1c2cccc(F)c2CCC1C (centres unmarked) [1-B21, N-(5-fluoro-2-methyl-1,2,3,4-tetrahydronaphthalen-1-yl)prop-2-enamide]
  viability at 48 h, 25 µM: 92.8%

## C=CC(=O)Nc1ccnn1Cc1cccc(Cl)c1 [1-N14, N-{1-[(3-chlorophenyl)methyl]-1H-pyrazol-5-yl}prop-2-enamide]
  viability at 48 h, 25 µM: 1.05%

## CC(C)NC(=O)C(C#N)=Cc1ccc(-c2ccccc2F)o1 [8-K18, 2-cyano-3-[5-(2-fluorophenyl)furan-2-yl]-N-(propan-2-yl)prop-2-enamide]
  viability at 48 h, 25 µM: 16%

## COc1cc(Cl)c(C)cc1NC(=O)C(C#N)=Cc1c(C)n[nH]c1C [8-K10, N-(4-chloro-2-methoxy-5-methylphenyl)-2-cyano-3-(3,5-dimethyl-1H-pyrazol-4-yl)prop-2-enamide]
  viability at 48 h, 25 µM: 83.6%

## C=CC(=O)NC1(c2cccc(F)c2)CCOCC1 [1-M04, N-[4-(3-fluorophenyl)oxan-4-yl]prop-2-enamide]
  viability at 48 h, 25 µM: 71.1%

## C=CC(=O)Nc1cc(C)cc(S(C)(=O)=O)c1 [3-F14, N-(3-methanesulfonyl-5-methylphenyl)prop-2-enamide]
  viability at 48 h, 25 µM: 94.1%

## O=C(CCl)N(Cc1cc(F)ccc1F)CC1CCOCC1 [5-P03, 2-chloro-N-[(2,5-difluorophenyl)methyl]-N-[(oxan-4-yl)methyl]acetamide]
  viability at 48 h, 25 µM: 0.456%

## C=CC(=O)Nc1ccccc1CNS(C)(=O)=O [3-F16, N-[2-(methanesulfonamidomethyl)phenyl]prop-2-enamide]
  viability at 48 h, 25 µM: 104%

## CC(Cl)C(=O)Nc1sccc1C#N (centres unmarked) [5-E21, 2-chloro-N-(3-cyanothiophen-2-yl)propanamide]
  viability at 48 h, 25 µM: 59%

## C=CC(=O)N1CCC(CCO)c2ccccc21 (centres unmarked) [3-O03, 1-[4-(2-hydroxyethyl)-1,2,3,4-tetrahydroquinolin-1-yl]prop-2-en-1-one]
  viability at 48 h, 25 µM: 58.4%

## N#CC(=Cc1cccc2ccccc12)C(=O)NCc1ccc(Cl)cc1 [8-J09, N-[(4-chlorophenyl)methyl]-2-cyano-3-(naphthalen-1-yl)prop-2-enamide]
  viability at 48 h, 25 µM: 66%

## CCc1ccc(C(NC(=O)CCl)c2cccc(F)c2)cc1 (centres unmarked) [4-C20, 2-chloro-N-[(4-ethylphenyl)(3-fluorophenyl)methyl]acetamide]
  viability at 48 h, 25 µM: 0.508%

## C=CC(=O)Nc1nn(CC(C)C)cc1Cl [2-G05, N-[4-chloro-1-(2-methylpropyl)-1H-pyrazol-3-yl]prop-2-enamide]
  viability at 48 h, 25 µM: 103%

## CC1CCCCC1OCCNC(=O)CCl (centres unmarked) [6-O06, 2-chloro-N-{2-[(2-methylcyclohexyl)oxy]ethyl}acetamide]
  viability at 48 h, 25 µM: 112%

## C=CC(=O)NCc1cc(C(F)(F)C(F)(F)F)on1 [3-B19, N-{[5-(1,1,2,2,2-pentafluoroethyl)-1,2-oxazol-3-yl]methyl}prop-2-enamide]
  viability at 48 h, 25 µM: 48.4%

## Cc1cccc(NC(=O)C(C#N)=Cc2cnc3ccc(C#N)cn23)c1 [9-O18, 2-cyano-3-{6-cyanoimidazo[1,2-a]pyridin-3-yl}-N-(3-methylphenyl)prop-2-enamide]
  viability at 48 h, 25 µM: 132%

## Cc1ccc(N2C(=O)C=CC2=O)c([N+](=O)[O-])c1 [10-N13, 1-(4-methyl-2-nitrophenyl)-2,5-dihydro-1H-pyrrole-2,5-dione]
  viability at 48 h, 25 µM: 133%

## CC(C)NC(=O)C(C#N)=Cc1cccc2ccccc12 [8-P06, 2-cyano-3-(naphthalen-1-yl)-N-(propan-2-yl)prop-2-enamide]
  viability at 48 h, 25 µM: 103%

## Cc1cc(C)c(NC(=O)C(C)Cl)c(Cl)c1 (centres unmarked) [6-E10, 2-chloro-N-(2-chloro-4,6-dimethylphenyl)propanamide]
  viability at 48 h, 25 µM: 109%

## C=CC(=O)N1CCCn2nc(CO)cc2C1 [3-M10, 1-[2-(hydroxymethyl)-4H,5H,6H,7H,8H-pyrazolo[1,5-a][1,4]diazepin-5-yl]prop-2-en-1-one]
  viability at 48 h, 25 µM: 109%

## C=CC(=O)Nc1ccccc1Sc1nncs1 [1-G04, N-[2-(1,3,4-thiadiazol-2-ylsulfanyl)phenyl]prop-2-enamide]
  viability at 48 h, 25 µM: 32.3%

## C=CC(=O)NC1CCN(c2ccccc2S(=O)(=O)CC)CC1 [2-M03, N-{1-[2-(ethanesulfonyl)phenyl]piperidin-4-yl}prop-2-enamide]
  viability at 48 h, 25 µM: 82.2%

## C=CC(=O)NCc1cccc(NS(C)(=O)=O)c1 [3-K15, N-[(3-methanesulfonamidophenyl)methyl]prop-2-enamide]
  viability at 48 h, 25 µM: 31.7%

## COc1ccc(NC(=O)C(C#N)=Cc2c(Cl)nc3ccccn23)cc1 [9-G09, 3-{2-chloroimidazo[1,2-a]pyridin-3-yl}-2-cyano-N-(4-methoxyphenyl)prop-2-enamide]
  viability at 48 h, 25 µM: 121%

## Cc1ccc(C=C(C#N)C(=O)Nc2ccc(N3CCOCC3)cc2)s1 [8-A06, 2-cyano-3-(5-methylthiophen-2-yl)-N-[4-(morpholin-4-yl)phenyl]prop-2-enamide]
  viability at 48 h, 25 µM: 76.2%

## Cc1cc(C(=O)CCl)c(C)c(C)c1C [10-I06, 2-chloro-1-(2,3,4,5-tetramethylphenyl)ethan-1-one]
  viability at 48 h, 25 µM: 0.728%

## N#CC(=Cc1cnn(CCCl)c1)C(=O)NC1CCCCC1 [9-A16, 3-[1-(2-chloroethyl)-1H-pyrazol-4-yl]-2-cyano-N-cyclohexylprop-2-enamide]
  viability at 48 h, 25 µM: 109%

## C=CC(=O)N1CCCC(O)(CC(N)=O)C1 (centres unmarked) [3-K14, 2-[3-hydroxy-1-(prop-2-enoyl)piperidin-3-yl]acetamide]
  viability at 48 h, 25 µM: 101%

## C=CC(=O)NCC1CCOC1 (centres unmarked) [1-H08, N-[(oxolan-3-yl)methyl]prop-2-enamide]
  viability at 48 h, 25 µM: 69.4%

## COc1ccc(C=C(C#N)C(=O)Nc2c(C)cccc2C)cc1OC [8-A17, 2-cyano-3-(3,4-dimethoxyphenyl)-N-(2,6-dimethylphenyl)prop-2-enamide]
  viability at 48 h, 25 µM: 82.9%

## CC(Cl)C(=O)N1CCN(C(=O)CN2C(=O)CCC2=O)CC1 (centres unmarked) [6-B11, 1-{2-[4-(2-chloropropanoyl)piperazin-1-yl]-2-oxoethyl}pyrrolidine-2,5-dione]
  viability at 48 h, 25 µM: 106%

## CC(Cl)C(=O)NCCc1nc(C2CCCCC2)cs1 (centres unmarked) [7-F09, 2-chloro-N-[2-(4-cyclohexyl-1,3-thiazol-2-yl)ethyl]propanamide]
  viability at 48 h, 25 µM: 84.8%

## C=CC(=O)N1CCCC(CNS(=O)(=O)C2CC2)C1 (centres unmarked) [3-G21, N-{[1-(prop-2-enoyl)piperidin-3-yl]methyl}cyclopropanesulfonamide]
  viability at 48 h, 25 µM: 50.6%

## COc1ccc2c(c1)OCCN(C(=O)C(C)Cl)C2 (centres unmarked) [7-E04, 2-chloro-1-(8-methoxy-2,3,4,5-tetrahydro-1,4-benzoxazepin-4-yl)propan-1-one]
  viability at 48 h, 25 µM: 122%

## O=C(CCl)c1ccc(C(F)(F)F)cc1 [10-B10, 2-chloro-1-[4-(trifluoromethyl)phenyl]ethan-1-one]
  viability at 48 h, 25 µM: 13.9%

## CC(Cl)C(=O)NCC1CCCCN1C(=O)C(F)(F)F (centres unmarked) [7-K13, 2-chloro-N-{[1-(2,2,2-trifluoroacetyl)piperidin-2-yl]methyl}propanamide]
  viability at 48 h, 25 µM: 83.8%

## N#CC(=Cc1ccc(O)c([N+](=O)[O-])c1)C(=O)NCc1ccccc1 [8-O05, N-benzyl-2-cyano-3-(4-hydroxy-3-nitrophenyl)prop-2-enamide]
  viability at 48 h, 25 µM: 98.7%

## CC(Cl)C(=O)NC(C)c1ccn(C)n1 (centres unmarked) [6-B16, 2-chloro-N-[1-(1-methyl-1H-pyrazol-3-yl)ethyl]propanamide]
  viability at 48 h, 25 µM: 103%
